Measurements reported in patent publication US12187721B2, “Protein tyrosine phosphatase inhibitors” (Array BioPharma Inc., priority 2018, dated 2025).

Columns and labels:
[1] = molecular target: T1, full-length SHP2 (His6-tagged SHP2(2-527)) (Homo sapiens, UniProt Q06124); assay: SHP2 Enzymatic Assay (fluorescence intensity kinetic assay, DiFMUP hydrolysis); type: biochemical; conditions: full-length SHP2 with 1 μM activating peptide, 50 μM DiFMUP; single assay or mean of multiple assays; read-out: Biological Example 1 IC50
T1 construct: His6-tagged SHP2(2-527); His6; made in house; host or cells: E. coli
T1 sequence (Q06124 2-527): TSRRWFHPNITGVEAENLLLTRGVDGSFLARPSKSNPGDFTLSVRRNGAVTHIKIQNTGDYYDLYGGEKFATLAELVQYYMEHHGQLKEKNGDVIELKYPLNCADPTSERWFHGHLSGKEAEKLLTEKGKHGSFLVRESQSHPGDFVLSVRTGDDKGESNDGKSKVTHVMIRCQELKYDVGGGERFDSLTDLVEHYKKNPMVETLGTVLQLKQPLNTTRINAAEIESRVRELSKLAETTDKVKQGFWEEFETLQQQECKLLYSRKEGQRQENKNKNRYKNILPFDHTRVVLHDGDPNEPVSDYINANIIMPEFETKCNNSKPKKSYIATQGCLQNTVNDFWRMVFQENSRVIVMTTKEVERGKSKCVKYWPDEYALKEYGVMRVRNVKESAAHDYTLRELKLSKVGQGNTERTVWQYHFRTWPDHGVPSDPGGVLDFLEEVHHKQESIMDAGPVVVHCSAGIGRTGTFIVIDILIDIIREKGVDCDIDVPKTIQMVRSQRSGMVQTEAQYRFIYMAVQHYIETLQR
In short: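 1 nM His6-SHP2(2-527), activated by 1 μM bis-phosphopeptide, hydrolysed 50 μM DiFMUP in 25 mM HEPES pH 7.4 with 1 mM DTT, 50 mM KCl and 2% DMSO. DiFMU fluorescence (Ex 355/Em 460 nm) was read kinetically for 15 min at ambient temperature.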

[2] = system: ERK1/2 (Thr202/Tyr204) phosphorylation in KYSE520 cells; assay: Cellular Phospho-p44/42 MAPK (Erk 1/2) (Thr202/Tyr204) Assay (In-Cell Western); type: cell-based; conditions: Homo sapiens, KYSE-520, 1 h, read-out: Biological Example 2 IC50 (nM)
Method: KYSE520 cells were obtained from DSMZ and grown in RPMI supplemented with 10% fetal bovine serum, pennicillin/streptomycin, 2 mM L-alanyl-L-glutamine dipeptide in 0.85% NaCl (Glutamax™), non-essential amino acids, and sodium pyruvate. Cells were plated in 96-well plates at 30,000 cells/well and allowed to attach overnight at 37° C./5% CO2. Cells were treated with compounds prepared as a 10-point, 1:3 dilution series (range: 20 μM-1 nM), with a final DMSO concentration of 0.5%. After 1 hour incubation, cells were fixed in 3.7% formaldehyde in Dulbecco's phosphate-buffered saline (“dPBS”) at room temperature for 20 minutes. Cells were then washed with dPBS and permeabilized in 100% MeOH at room temperature for 10 minutes. Following permeabilization, cells were washed in dPBS and incubated in LI-COR Blocking Buffer (LI-COR Biosciences, Cat #927-40000) for 1 hour or longer. Plates were then incubated with an antibody specific for the MEK-dependent ERK1/2 phosphorylation sites, threonine 202 and tyrosine 204 (Cell Signaling Technologies; Cat #9101), downstream of SHP2 in the MAP kinase signal transduction pathway, as well as GAPDH (Millipore; Cat #MAB374). pErk1/2 (Thr202/Tyr204) antibody was diluted in LI-COR blocking buffer containing 0.05% polysorbate-20 (Tween-20) at 1:250; GAPDH was diluted at 1:2,500. The plates were incubated overnight at 4° C. After washing with PBS/0.05% Tween-20, the cells were incubated with fluorescently-labeled secondary antibodies (Anti-rabbit-Alexa Flour680, Invitrogen Cat #A21109; Anti-mouse-IRDye800CW, Li-cor Bioscieces Cat #926-32210, both at 1:1000 dilution) for 1 hour. Cells were then washed, as above, and analyzed for fluorescence at both 680 nm and 800 nm wavelengths using the Aerius Infrared Imaging System (LI-COR Biosciences, Model 9250). Phosphorylated Erk1/2 (Thr202/Tyr204) signal was normalized to GAPDH signal for each well. IC50 values were calculated from the normalized values using a 4-parameter fit in BioAssay software. […] The reported IC50 in Table 2 may be from a single assay or the mean of multiple assays.

Nc1nccc(Sc2ccc3nc(N4CCC5(CC4)Cc4ncccc4[C@H]5N)cnc3n2)c1Cl [Example 125, (S)-1′-(6-((2-amino-3-chloropyridin-4-yl)thio)pyrido[2,3-b]pyrazin-2-yl)-5,7-dihydrospiro[cyclopenta[b]pyridine-6,4′-piperidin]-5-amine]
IC50 [1]: 38 nM | IC50 [2]: 5 nM
